IC50 and AC50 data for 20 compounds are collected here from patent US20240409536A1, “COMPOUNDS AND METHODS FOR MODULATING SPLICING” (REMIX THERAPEUTICS INC., priority 2021, published 2024).

The subject of the assay is MYB mRNA. In words: Splicing RT-qPCR assay, MYB canonical (CJ) and alternative (AJ) junction mRNA. The settings on record: Homo sapiens, A673 or K562 cells, 24 hours; for IC50: decrease in canonical junction mRNA; for AC50: increase in alternative junction mRNA. It is filed as cell-based. The procedure, abridged: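 RT-qPCR read-out: CJ and AJ junction isoforms quantified from cell lysates, normalized to housekeeping GAPDH/GUSB (K562) or PPIA (A673). Cells had 24 h compound exposure, 11-point 3-fold series from 10 uM final, ≤0.25% DMSO.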
On the technique in general: In qPCR the cycle at which signal appears reflects the starting amount.

As for `COc1cnc2c(N3CCNCC3)ccc(C(=O)Nc3cc(F)c4nc(C)cn4c3)c2n1` [Compound 207, N-{8-fluoro-2-methylimidazo[1,2-a]pyridin-6-yl}-3-methoxy-8-(piperazin-1-yl)quinoxaline-5-carboxamide; bis(trifluoroacetic acid)], the IC50 (as a rule, the concentration needed to halve the response being measured) was less than 0.1 µM and the AC50 (as a rule, the midpoint of the concentration-response curve, whichever way the signal moves) was less than 0.1 µM.

As to `Cc1cnc2c(C(=O)Nc3cc(F)c4nc(C)cn4c3)ccc(N3CCC(N(C)C)CC3)c2n1` [Compound 208, 8-[4-(dimethylamino)piperidin-1-yl]-N-{8-fluoro-2-methylimidazo[1,2-a]pyridin-6-yl}-2-methylquinoxaline-5-carboxamide; bis(trifluoroacetic acid)], the IC50 is less than 0.1 µM and the AC50 is less than 0.1 µM.

For the compound `Cc1ccc2c(N3C[C@@H](C)N[C@@H](C)C3)ccc(C(=O)Nc3cc(F)c4nc(C)cn4c3)c2n1` [Compound 214, 5-[(3R,5S)-3,5-dimethylpiperazin-1-yl]-N-{8-fluoro-2-methylimidazo[1,2-a]pyridin-6-yl}-2-methylquinoline-8-carboxamide], the IC50 was less than 0.1 µM and the half-maximal activity concentration (AC50) fell in the range of 0.1 to 1 µM.

Consider `Cc1ccc2c(N3CCC(N(C)C)CC3)ccc(C(=O)Nc3cc(F)c4nc(C)cn4c3)c2n1` [Compound 215, 5-[4-(dimethylamino)piperidin-1-yl]-N-{8-fluoro-2-methylimidazo[1,2-a]pyridin-6-yl}-2-methylquinoline-8-carboxamide], for which the IC50 was in the range of 0.1 to 1 µM and the concentration at half-maximal activity (AC50) was 0.1 to 1 µM.

Compound `Cc1cnc2c(N3C[C@@H](C)N[C@@H](C)C3)ccc(C(=O)Nc3cc(F)c4nc(C)cn4c3)c2n1` [Compound 216, 8-((3R,5S)-3,5-dimethylpiperazin-1-yl)-N-{8-fluoro-2-methylimidazo[1,2-a]pyridin-6-yl}-3-methylquinoxaline-5-carboxamide] registered an IC50 of 0.1 to 1 µM and a half-maximal activity concentration (AC50) of less than 0.1 µM.

With `Cc1cn2cc(NC(=O)c3ccc(N4CCNC5(CC5)C4)c4nccnc34)cc(F)c2n1` [Compound 218, 8-{4,7-diazaspiro[2.5]octan-7-yl}-N-{8-fluoro-2-methylimidazo[1,2-a]pyridin-6-yl}quinoxaline-5-carboxamide], the IC50 was less than 0.1 µM and the AC50 is less than 0.1 µM.

For `Cc1cn2cc(NC(=O)c3ccc(N4CC(C)(C)NC(C)(C)C4)c4nccnc34)cc(F)c2n1` [Compound 219, N-{8-fluoro-2-methylimidazo[1,2-a]pyridin-6-yl}-8-(3,3,5,5-tetramethylpiperazin-1-yl)quinoxaline-5-carboxamide], the IC50 was less than 0.1 µM and the AC50 was less than 0.1 µM.

As for `Cc1cn2cc(NC(=O)c3ccc(N4CCNC(C)(C)C4)c4nccnc34)cc(F)c2n1` [Compound 220, 8-(3,3-dimethylpiperazin-1-yl)-N-{8-fluoro-2-methylimidazo[1,2-a]pyridin-6-yl}quinoxaline-5-carboxamide], the IC50 is less than 0.1 µM and the AC50 was less than 0.1 µM.

Compound `CCNC1CCN(c2ccc(C(=O)Nc3cc(F)c4nc(C)sc4c3)c3nnccc23)CC1` [Compound 221, 5-[4-(ethylamino)piperidin-1-yl]-N-(4-fluoro-2-methyl-1,3-benzothiazol-6-yl)cinnoline-8-carboxamide] yielded an IC50 of 1 to 10 µM and an AC50 of 1 to 10 µM.

Compound `COc1cnc2c(C(=O)Nc3cc(F)c4nc(C)cn4c3)ccc(N3C[C@@H](C)N[C@@H](C)C3)c2n1` [Compound 223] yielded an IC50 of less than 0.1 µM and an AC50 of less than 0.1 µM.

In turn, `COc1cnc2c(C(=O)Nc3cc(F)c4nc(C)cn4c3)ccc(N3CCNCC3)c2n1` [Compound 225, N-{8-fluoro-2-methylimidazo[1,2-a]pyridin-6-yl}-2-methoxy-8-(piperazin-1-yl)quinoxaline-5-carboxamide] returned an IC50 of less than 0.1 µM and an AC50 of 0.1 to 1 µM.

The compound `Cc1cn2cc(NC(=O)c3ccc(N4CCN(CCF)C5(CC5)C4)c4nccnc34)cc(F)c2n1` [Compound 370] had an IC50 of 1 to 10 µM and an AC50 greater than 10 µM.

The compound `Cc1cn2cc(NC(=O)c3ccc(C4CCNCC4)c4nccnc34)cc(F)c2n1` [Compound 371] showed a 50% inhibitory concentration (IC50) of 0.1 to 1 µM and an AC50 of less than 0.1 µM.

Compound `Cc1cn2cc(NC(=O)c3ccc(N4CCNC5(COC5)C4)c4nccnc34)cc(F)c2n1` [Compound 372] yielded an IC50 of 1 to 10 µM and an AC50 of 1 to 10 µM.

As for `Cc1cn2cc(NC(=O)c3ccc(N4CCNC5(CCOC5)C4)c4nccnc34)cc(F)c2n1` (stereo not shown) [Compound 373], the IC50 is 0.1 to 1 µM and the AC50 lay within 1 to 10 µM.

For the compound `Cc1cn2cc(NC(=O)c3ccc(N4CCNC5(CCOCC5)C4)c4nccnc34)cc(F)c2n1` [Compound 374], the IC50 lay within 0.1 to 1 µM and the AC50 is 0.1 to 1 µM.

Turning to `Cc1cn2cc(NC(=O)c3ccc(C4CCNC5(CC5)C4)c4nccnc34)cc(F)c2n1` (stereo not shown) [Compound 375], the IC50 lay in the range of 0.1 to 1 µM and the AC50 is 0.1 to 1 µM.

In the case of `Cc1cn2cc(NC(=O)c3ccc(N4C[C@@H](C)NC5(CC5)C4)c4nccnc34)cc(F)c2n1` [Compound 376], the IC50 is 0.1 to 1 µM and the AC50 was 0.1 to 1 µM.

Regarding `Cc1cn2cc(NC(=O)c3ccc(N4C[C@H](C)NC5(CC5)C4)c4nccnc34)cc(F)c2n1` [Compound 377], the IC50 is less than 0.1 µM and the AC50 is less than 0.1 µM.

The compound `COc1ncc2c(N3C[C@@H](C)N[C@@H](C)C3)ccc(C(=O)Nc3cn4cc(C)nc4c(OC)n3)c2n1` [Compound 378] registered an IC50 of less than 0.1 µM and an AC50 of less than 0.1 µM.
